Test results published in US11254663B2 (BRISTOL-MYERS SQUIBB COMPANY, priority 2019, dated 2022).

molecular target: FXR (Homo sapiens (Human), UniProt Q96RI1); assay: transient human FXR/Gal4-luciferase reporter assay; type: cell-based; settings: Gal4-hFXR fusion construct, HEK293 reporter cells; response relative to 8 μM GW-4064
In short: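 HEK293 cells stably carrying a 5×Gal4 response element–firefly luciferase reporter were transiently transfected overnight with a Gal4 DBD–human FXR LBD fusion plasmid. Compound was added in DMSO and cells were incubated overnight at 37 °C, 5% CO2. Activity was read as Steady-Glo luminescence.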

Chain of FXR (Q96RI1 262-486): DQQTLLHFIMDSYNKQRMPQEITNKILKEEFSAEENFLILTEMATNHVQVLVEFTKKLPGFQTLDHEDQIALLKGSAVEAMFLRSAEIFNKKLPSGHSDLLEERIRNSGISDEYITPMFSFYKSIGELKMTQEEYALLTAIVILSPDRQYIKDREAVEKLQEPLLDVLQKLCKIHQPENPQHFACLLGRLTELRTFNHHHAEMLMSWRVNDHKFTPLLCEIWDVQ

Point of comparison: `Cc1nc2ccc(-c3cccc(N(CC45CCC(c6cc(C7CC7)n(C)n6)(CC4)CC5)C(=O)C45CC(F)(C4)C5)c3)cc2s1` [Example 409, N-((4-(5-cyclopropyl-1-methyl-1H-pyrazol-3-yl)bicyclo[2.2.2]octan-1-yl)methyl)-3-fluoro-N-(3-(2-methylbenzo[d]thiazol-6-yl)phenyl)bicyclo[1.1.1]pentane-1-carboxamide], EC50 0.073 µM. Against it:
- COCc1ccc(-c2cccc(N(CC34CCC(c5nc(C(C)C)no5)(CC3)CC4)C(=O)C34CC(F)(C3)C4)c2)cc1 [Example 392, 3-fluoro-N-((4-(3-isopropyl-1,2,4-oxadiazol-5-yl)bicyclo[2.2.2]octan-1-yl)methyl)-N-(4′-(methoxymethyl)-[1,1′-biphenyl]-3-yl)bicyclo[1.1.1]pentane-1-carboxamide] — 2.5-fold higher, 0.183 µM
- Cc1cnc(-c2cccc(N(CC34CCC(c5nc(C(C)C)no5)(CC3)CC4)C(=O)C34CC(F)(C3)C4)c2)nc1 [Example 393, 3-fluoro-N-((4-(3-isopropyl-1,2,4-oxadiazol-5-yl)bicyclo[2.2.2]octan-1-yl)methyl)-N-(3-(5-methylpyrimidin-2-yl)phenyl)bicyclo[1.1.1]pentane-1-carboxamide] — within 1.5-fold, 0.049 µM
- CCc1cnc(-c2cccc(N(CC34CCC(c5nc(C(C)C)no5)(CC3)CC4)C(=O)C34CC(F)(C3)C4)c2)nc1 [Example 394, N-(3-(5-ethylpyrimidin-2-yl)phenyl)-3-fluoro-N-((4-(3-isopropyl-1,2,4-oxadiazol-5-yl)bicyclo[2.2.2]octan-1-yl)methyl)bicyclo[1.1.1]pentane-1-carboxamide] — within 1.5-fold, 0.077 µM
- CCOc1cnc(-c2cccc(N(CC34CCC(c5nc(C(C)C)no5)(CC3)CC4)C(=O)C34CC(F)(C3)C4)c2)nc1 [Example 395, N-(3-(5-ethoxypyrimidin-2-yl)phenyl)-3-fluoro-N-((4-(3-isopropyl-1,2,4-oxadiazol-5-yl)bicyclo[2.2.2]octan-1-yl)methyl)bicyclo[1.1.1]pentane-1-carboxamide] — 2.1-fold higher, 0.156 µM
- CCOc1ncc(-c2cccc(N(CC34CCC(c5noc(C6(C)CC6)n5)(CC3)CC4)C(=O)C34CC(F)(C3)C4)c2)cn1 [Example 396, N-(3-(2-ethoxypyrimidin-5-yl)phenyl)-3-fluoro-N-((4-(5-(1-methylcyclopropyl)-1,2,4-oxadiazol-3-yl)bicyclo[2.2.2]octan-1-yl)methyl)bicyclo[1.1.1]pentane-1-carboxamide] — 1.6-fold lower, 0.046 µM
- CC1(c2nc(C34CCC(CN(C(=O)C56CC(F)(C5)C6)c5cccc(-c6ccc(NS(=O)(=O)C7CC7)cc6)c5)(CC3)CC4)no2)CC1 [Example 397, N-(4′-(cyclopropanesulfonamido)-[1,1′-biphenyl]-3-yl)-3-fluoro-N-((4-(5-(1-methylcyclopropyl)-1,2,4-oxadiazol-3-yl)bicyclo[2.2.2]octan-1-yl)methyl) bicyclo[1.1.1]pentane-1-carboxamide] — 2.5-fold higher, 0.183 µM
- CC1(c2nc(C34CCC(CN(C(=O)C56CC(F)(C5)C6)c5cccc(-c6ccc(NS(C)(=O)=O)cc6)c5)(CC3)CC4)no2)CC1 [Example 398, 3-fluoro-N-((4-(5-(1-methylcyclopropyl)-1,2,4-oxadiazol-3-yl)bicyclo[2.2.2]octan-1-yl)methyl)-N-(4′-(methylsulfonamido)-[1,1′-biphenyl]-3-yl)bicyclo[1.1.1]pentane-1-carboxamide] — within 1.5-fold, 0.093 µM
- CCOc1ccc(-c2cccc(N(CC34CCC(c5noc(C6(C)CC6)n5)(CC3)CC4)C(=O)C34CC(F)(C3)C4)c2)cc1 [Example 399, N-(4′-ethoxy-[1,1′-biphenyl]-3-yl)-3-fluoro-N-((4-(5-(1-methylcyclopropyl)-1,2,4-oxadiazol-3-yl)bicyclo[2.2.2]octan-1-yl)methyl)bicyclo[1.1.1]pentane-1-carboxamide] — within 1.5-fold, 0.058 µM
- COc1ncc(-c2cccc(N(CC34CCC(c5noc(C6(C)CC6)n5)(CC3)CC4)C(=O)C34CC(F)(C3)C4)c2)cn1 [Example 400, 3-fluoro-N-(3-(2-methoxypyrimidin-5-yl)phenyl)-N-((4-(5-(1-methylcyclopropyl)-1,2,4-oxadiazol-3-yl)bicyclo[2.2.2]octan-1-yl)methyl)bicyclo[1.1.1]pentane-1-carboxamide] — within 1.5-fold, 0.051 µM
- CCOc1ccc(-c2cccc(N(CC34CCC(c5noc(C6(C)CC6)n5)(CC3)CC4)C(=O)C34CC(F)(C3)C4)c2)cn1 [Example 401, N-(3-(6-ethoxypyridin-3-yl)phenyl)-3-fluoro-N-((4-(5-(1-methylcyclopropyl)-1,2,4-oxadiazol-3-yl)bicyclo[2.2.2]octan-1-yl)methyl)bicyclo[1.1.1]pentane-1-carboxamide] — 1.7-fold lower, 0.042 µM
- Cc1nc2ccc(-c3cccc(N(CC45CCC(c6noc(C7(C)CC7)n6)(CC4)CC5)C(=O)C45CC(F)(C4)C5)c3)cc2s1 [Example 402, 3-fluoro-N-(3-(2-methylbenzo[d]thiazol-6-yl)phenyl)-N-((4-(5-(1-methylcyclopropyl)-1,2,4-oxadiazol-3-yl)bicyclo[2.2.2]octan-1-yl)methyl)bicyclo[1.1.1]pentane-1-carboxamide] — 2.1-fold lower, 0.035 µM
- CC1(c2nc(C34CCC(CN(C(=O)C56CC(F)(C5)C6)c5cccc(-c6cnc(C7CC7)nc6)c5)(CC3)CC4)no2)CC1 [Example 403, N-(3-(2-cyclopropylpyrimidin-5-yl)phenyl)-3-fluoro-N-((4-(5-(1-methylcyclopropyl)-1,2,4-oxadiazol-3-yl)bicyclo[2.2.2]octan-1-yl)methyl)bicyclo[1.1.1]pentane-1-carboxamide] — within 1.5-fold, 0.1 µM
- CC1(c2nc(C34CCC(CN(C(=O)C56CC(F)(C5)C6)c5cccc(-c6cnc(C(F)(F)F)nc6)c5)(CC3)CC4)no2)CC1 [Example 404, 3-fluoro-N-((4-(5-(1-methylcyclopropyl)-1,2,4-oxadiazol-3-yl)bicyclo[2.2.2]octan-1-yl)methyl)-N-(3-(2-(trifluoromethyl)pyrimidin-5-yl)phenyl)bicyclo[1.1.1]pentane-1-carboxamide] — 3-fold higher, 0.221 µM
- CC1(c2nc(C34CCC(CN(C(=O)C56CC(F)(C5)C6)c5cccc(-c6ccc(OC(F)F)cc6)c5)(CC3)CC4)no2)CC1 [Example 405, N-(4′-(difluoromethoxy)-[1,1′-biphenyl]-3-yl)-3-fluoro-N-((4-(5-(1-methylcyclopropyl)-1,2,4-oxadiazol-3-yl)bicyclo[2.2.2]octan-1-yl)methyl)bicyclo[1.1.1]pentane-1-carboxamide] — within 1.5-fold, 0.053 µM
- Cn1nc(C23CCC(CN(C(=O)C45CC(F)(C4)C5)c4cccc(-c5ccc(NS(C)(=O)=O)cc5)c4)(CC2)CC3)cc1C1CC1 [Example 406, N-((4-(5-cyclopropyl-1-methyl-1H-pyrazol-3-yl)bicyclo[2.2.2]octan-1-yl)methyl)-3-fluoro-N-(4′-(methylsulfonamido)-[1,1′-biphenyl]-3-yl)bicyclo[1.1.1]pentane-1-carboxamide] — 2.8-fold higher, 0.203 µM
- CCOc1ncc(-c2cccc(N(CC34CCC(c5cc(C6CC6)n(C)n5)(CC3)CC4)C(=O)C34CC(F)(C3)C4)c2)cn1 [Example 407, N-((4-(5-cyclopropyl-1-methyl-1H-pyrazol-3-yl)bicyclo[2.2.2]octan-1-yl)methyl)-N-(3-(2-ethoxypyrimidin-5-yl)phenyl)-3-fluorobicyclo[1.1.1]pentane-1-carboxamide] — 2.9-fold higher, 0.209 µM
- COc1ccc(-c2cccc(N(CC34CCC(c5cc(C6CC6)n(C)n5)(CC3)CC4)C(=O)C34CC(F)(C3)C4)c2)cc1 [Example 408, N-((4-(5-cyclopropyl-1-methyl-1H-pyrazol-3-yl)bicyclo[2.2.2]octan-1-yl)methyl)-3-fluoro-N-(4′-methoxy-[1,1′-biphenyl]-3-yl)bicyclo[1.1.1]pentane-1-carboxamide] — 2.2-fold higher, 0.16 µM
- Cn1nc(C23CCC(CN(C(=O)C45CC(F)(C4)C5)c4cccc(-c5cnc6nc(C7CC7)sc6c5)c4)(CC2)CC3)cc1C1CC1 [Example 410, N-((4-(5-cyclopropyl-1-methyl-1H-pyrazol-3-yl)bicyclo[2.2.2]octan-1-yl)methyl)-N-(3-(2-cyclopropylthiazolo[4,5-b]pyridin-6-yl)phenyl)-3-fluorobicyclo[1.1.1]pentane-1-carboxamide] — 6.4-fold higher, 0.465 µM
- Cn1nc(C23CCC(CN(C(=O)C45CC(F)(C4)C5)c4cccc(-c5ccc6[nH]c(=O)oc6c5)c4)(CC2)CC3)cc1C1CC1 [Example 411, N-((4-(5-cyclopropyl-1-methyl-1H-pyrazol-3-yl)bicyclo[2.2.2]octan-1-yl)methyl)-3-fluoro-N-(3-(2-oxo-2,3-dihydrobenzo[d]oxazol-6-yl)phenyl)bicyclo[1.1.1]pentane-1-carboxamide] — 2-fold higher, 0.144 µM
- Cn1nc(C2CC2)cc1C12CCC(CN(C(=O)C34CC(F)(C3)C4)c3cccc(-c4ccc(NS(C)(=O)=O)cc4)c3)(CC1)CC2 [Example 412, N-((4-(3-cyclopropyl-1-methyl-1H-pyrazol-5-yl)bicyclo[2.2.2]octan-1-yl)methyl)-3-fluoro-N-(4′-(methylsulfonamido)-[1,1′-biphenyl]-3-yl)bicyclo[1.1.1]pentane-1-carboxamide] — within 1.5-fold, 0.105 µM
- CCOc1ncc(-c2cccc(N(CC34CCC(c5cc(C6CC6)nn5C)(CC3)CC4)C(=O)C34CC(F)(C3)C4)c2)cn1 [Example 413, N-((4-(3-cyclopropyl-1-methyl-1H-pyrazol-5-yl)bicyclo[2.2.2]octan-1-yl)methyl)-N-(3-(2-ethoxypyrimidin-5-yl)phenyl)-3-fluorobicyclo[1.1.1]pentane-1-carboxamide] — 2.6-fold higher, 0.192 µM
- COc1ccc(-c2cccc(N(CC34CCC(c5cc(C6CC6)nn5C)(CC3)CC4)C(=O)C34CC(F)(C3)C4)c2)cc1 [Example 414, N-((4-(3-cyclopropyl-1-methyl-1H-pyrazol-5-yl)bicyclo[2.2.2]octan-1-yl)methyl)-3-fluoro-N-(4′-methoxy-[1,1′-biphenyl]-3-yl)bicyclo[1.1.1]pentane-1-carboxamide] — within 1.5-fold, 0.085 µM
